Patent US11541060B2, “Pharmaceutical compositions for treating pain” (FOREVER CHEER INTERNATIONAL LIMITED, priority 2017, dated 2023)
Entries after “also recorded” stand apart in the source; their conditions may differ.

Key:
[1] = test system: behavioral itching (scratching) response in mice; assay: Itching response to intradermal compound 48/80; format: in vivo; settings: compound 48/80 100 μg/50 μl intradermal, FIG. 7
[2] = test system: morphine tolerance in mice; assay: Morphine tolerance after repeated morphine injections (hotplate, tail-flick); settings: mouse, in vivo
[3] = test system: morphine-induced place preference in mice; assay: Conditioned place preference (CPP) to morphine; format: in vivo
[4] = test system: anxiety caused by nerve injury in mice; assay: Anxiety behavior test (EPM) after nerve injury; format: in vivo; settings: FIG. 6
[5] = test system: pre-LTP in ACC; assay: pre-LTP in ACC cortical slices; format: cell-based, adult mice; settings: 25 μM (SQ22356 'same dose'; NB011 concentration not given), FIG. 1B/FIG. 2
[6] = test system: post-LTP in ACC; settings: recent report (Chen et al., 2014); cited from earlier work
[7] = target: adenylyl cyclase subtype 8 (AC8) (Homo sapiens, UniProt P40145); assay: cAMP assay in AC8 expressing cell line (biochemical screening for AC1 & 8 inhibitors); format: cell-based; settings: for inhibition of AC8 activity (in words): 100 μM; for inhibition at 100 µM: read-out: Percent Inhibition AC8
[8] = target: adenylyl cyclase subtype 1 (AC1) (Homo sapiens, UniProt Q08828); assay: cAMP assay in AC1 expressing cell line (biochemical screening for AC1 & 8 inhibitors); format: cell-based; settings: for inhibition of AC1 activity (in words): 100 μM; for inhibition at 100 µM: read-out: Percent Inhibition AC1
[9] = test system: post-LTP in ACC; assay: post-LTP (ACC LTP) in ACC cortical slices; format: cell-based; settings: 25 μM, ACC slices of adult mice, FIG. 1A

Chain of adenylyl cyclase subtype 8 (AC8) (P40145 whole entry, species assumed): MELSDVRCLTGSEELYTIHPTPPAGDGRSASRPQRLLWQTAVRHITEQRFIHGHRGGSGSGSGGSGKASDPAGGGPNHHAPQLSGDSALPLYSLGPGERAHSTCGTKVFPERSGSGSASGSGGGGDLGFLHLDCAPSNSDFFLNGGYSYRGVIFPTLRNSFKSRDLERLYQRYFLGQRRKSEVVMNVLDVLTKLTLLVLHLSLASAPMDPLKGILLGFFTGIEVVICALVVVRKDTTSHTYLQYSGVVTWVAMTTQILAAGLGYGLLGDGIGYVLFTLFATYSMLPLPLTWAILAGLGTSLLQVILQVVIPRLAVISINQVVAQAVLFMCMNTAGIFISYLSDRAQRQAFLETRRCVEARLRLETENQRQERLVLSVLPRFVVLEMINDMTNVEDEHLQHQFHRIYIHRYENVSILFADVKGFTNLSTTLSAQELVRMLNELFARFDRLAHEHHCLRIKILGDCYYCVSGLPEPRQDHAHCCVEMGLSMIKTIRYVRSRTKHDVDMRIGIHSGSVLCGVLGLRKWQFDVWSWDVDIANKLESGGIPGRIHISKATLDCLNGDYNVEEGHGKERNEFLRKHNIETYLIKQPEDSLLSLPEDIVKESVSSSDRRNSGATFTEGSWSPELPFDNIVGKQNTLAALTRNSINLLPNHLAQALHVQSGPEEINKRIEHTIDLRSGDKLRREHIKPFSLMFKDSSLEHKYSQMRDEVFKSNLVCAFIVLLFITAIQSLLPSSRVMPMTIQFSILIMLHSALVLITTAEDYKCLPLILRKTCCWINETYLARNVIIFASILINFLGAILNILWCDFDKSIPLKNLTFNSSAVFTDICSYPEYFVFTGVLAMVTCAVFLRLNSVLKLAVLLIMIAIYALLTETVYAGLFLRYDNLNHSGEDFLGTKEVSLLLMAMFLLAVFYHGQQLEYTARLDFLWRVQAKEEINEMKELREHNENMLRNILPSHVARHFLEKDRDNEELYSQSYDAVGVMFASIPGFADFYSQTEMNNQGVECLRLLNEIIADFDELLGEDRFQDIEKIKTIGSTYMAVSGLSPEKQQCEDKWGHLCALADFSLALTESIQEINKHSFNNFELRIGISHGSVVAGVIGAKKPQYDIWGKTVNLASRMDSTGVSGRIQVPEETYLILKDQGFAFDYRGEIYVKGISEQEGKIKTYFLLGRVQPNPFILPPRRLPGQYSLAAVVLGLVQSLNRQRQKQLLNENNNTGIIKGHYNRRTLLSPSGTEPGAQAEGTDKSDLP
Chain of adenylyl cyclase subtype 1 (AC1) (Q08828 whole entry): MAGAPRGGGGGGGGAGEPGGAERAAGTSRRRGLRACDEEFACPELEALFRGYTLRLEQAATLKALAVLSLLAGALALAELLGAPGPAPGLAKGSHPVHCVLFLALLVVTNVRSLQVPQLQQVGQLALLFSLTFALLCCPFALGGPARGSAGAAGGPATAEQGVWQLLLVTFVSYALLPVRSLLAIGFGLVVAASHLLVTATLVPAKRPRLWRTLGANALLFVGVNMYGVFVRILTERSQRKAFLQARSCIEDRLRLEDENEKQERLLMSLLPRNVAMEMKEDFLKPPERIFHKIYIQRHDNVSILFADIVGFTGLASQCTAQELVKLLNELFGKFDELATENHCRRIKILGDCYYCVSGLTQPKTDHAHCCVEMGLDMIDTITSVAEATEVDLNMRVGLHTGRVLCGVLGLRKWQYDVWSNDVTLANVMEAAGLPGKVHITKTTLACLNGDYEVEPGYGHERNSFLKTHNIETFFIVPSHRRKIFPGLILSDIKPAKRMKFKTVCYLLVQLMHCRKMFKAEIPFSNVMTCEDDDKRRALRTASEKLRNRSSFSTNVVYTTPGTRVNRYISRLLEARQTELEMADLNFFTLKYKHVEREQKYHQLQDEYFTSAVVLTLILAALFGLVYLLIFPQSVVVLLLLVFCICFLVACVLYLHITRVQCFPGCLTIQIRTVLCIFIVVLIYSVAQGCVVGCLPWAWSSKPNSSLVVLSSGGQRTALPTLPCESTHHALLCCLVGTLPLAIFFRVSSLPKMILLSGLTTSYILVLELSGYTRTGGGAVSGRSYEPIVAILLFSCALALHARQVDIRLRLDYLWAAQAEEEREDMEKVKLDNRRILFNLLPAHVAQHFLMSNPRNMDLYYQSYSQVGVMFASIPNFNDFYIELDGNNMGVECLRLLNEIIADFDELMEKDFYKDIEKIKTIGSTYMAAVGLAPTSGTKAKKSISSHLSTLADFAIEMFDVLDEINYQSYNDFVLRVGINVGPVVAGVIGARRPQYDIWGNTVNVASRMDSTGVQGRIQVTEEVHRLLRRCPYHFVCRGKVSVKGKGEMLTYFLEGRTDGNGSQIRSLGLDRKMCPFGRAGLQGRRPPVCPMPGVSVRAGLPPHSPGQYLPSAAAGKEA

SMILES: Nc1ncnc2c1ncn2C1CCCO1 (centres unmarked) [SQ22356, reference compound]
- total scratching (itching) responses ([1]; 5 mg/kg): did not show significantly reduction
- morphine tolerance / morphine analgesic effect [2]: no significant effect; also recorded: did not produce any significant effect
- morphine-induced place preference ([3]; 5 mg/kg, morphine 10 mg/kg, after 9 days, FIG. 5): did not produce any inhibition
- anxiety caused by nerve injury (EPM test) ([4]; 5 mg/kg, 7 days after injury): Neither GABApentin (100 mg/kg, i.p.) nor SQ22356 (5 mg/kg) significantly reduced; also recorded: no significant effect
- induction of pre-LTP [5]: did not cause a significant decrease

SMILES: NCC1(CC(=O)O)CCCCC1 [GABApentin, reference compound]
- total scratching (itching) responses ([1]; 100 mg/kg): neither GABApentin nor SQ22356 produce any significant effect
- total scratching (itching) responses ([1]; 100 mg/kg, listed as GABApention): did not cause a significant reduction
- morphine tolerance / morphine analgesic effect [2]: did not produce a significant effect; also recorded: did not produce any significant effect
- morphine-induced place preference ([3]; 100 mg/kg, morphine 10 mg/kg, after 9 days, FIG. 5): did not produce any significant effect
- anxiety caused by nerve injury (EPM test) ([4]; 100 mg/kg i.p.): Neither GABApentin (100 mg/kg, i.p.) nor SQ22356 (5 mg/kg) significantly reduced; also recorded: no significant effect
- induction of pre-LTP [5]: not blocked
- effect on ACC LTP [6]: does not affect

SMILES: Nc1ncnc2c1ncn2CCNCCCCCO [NB001, 5-((2-(6-amino-9H-purin-9-yl)ethyl)amino)pentane-1-ol]
- morphine-induced place preference ([3]; mouse, in vivo): significantly less time; also recorded: significant reduce; also recorded: expected effect was not produced

SMILES: Cc1ccc(OCCn2c(S)nc3c(N)ncnc32)cc1 [NB010]
- total scratching (itching) responses ([1]; pretreatment (dose not given)): significantly reduced
- morphine tolerance / morphine analgesic effect [2]: significant greater analgesic effects; also recorded: reduced
- morphine tolerance / morphine analgesic effect ([2]; 1 mg/kg): no significant effect
- inhibition of AC8 activity (in words) [7]: significant inhibition
- inhibition at 100 µM [7]: 88 ± 2%
- anxiety caused by nerve injury (EPM test) ([4]; 5 mg/kg, 7 days after injury): significant reduction; also recorded: reduced anxiety
- anxiety caused by nerve injury (EPM test) ([4]; low dose 1 mg/kg, 1 mg/kg): did not significantly decrease; also recorded: neither NB010 nor NB011 affected anxiety
- inhibition of AC1 activity (in words) [8]: significant inhibition
- inhibition at 100 µM [8]: 96 ± 4%
- induction of pre-LTP [5]: inhibit; also recorded: blocked
- induction of post-LTP (ACC LTP) [9]: blocked

SMILES: c1nc(N2CCOCC2)c2nc[nH]c2n1 [NB011, 4-(9H-purin-6-yl)morpholine]
- total scratching (itching) responses ([1]; pretreatment (dose not given)): significantly reduced
- morphine tolerance / morphine analgesic effect [2]: significant greater analgesic effects; also recorded: reduced
- morphine tolerance / morphine analgesic effect ([2]; 1 mg/kg): no significant effect
- inhibition of AC8 activity (in words) [7]: significant inhibition
- inhibition at 100 µM [7]: 86 ± 2%
- morphine-induced place preference ([3]; dose reduced to 1 mg/kg (not shown in figure)): expected effect was not produced
- anxiety caused by nerve injury (EPM test) ([4]; 5 mg/kg, 7 days after injury): significant reduction; also recorded: reduced anxiety
- anxiety caused by nerve injury (EPM test) ([4]; low dose 1 mg/kg, 1 mg/kg): neither NB010 nor NB011 affected anxiety
- inhibition of AC1 activity (in words) [8]: significant inhibition
- inhibition at 100 µM [8]: 91 ± 3%
- induction of pre-LTP [5]: inhibit; also recorded: decrease
